The values that follow are results of earlier work, collected in patent US20260216276A1, “COMPOSITIONS AND METHODS FOR MODULATING COMPLEMENT ACTIVITY” (UCB HOLDINGS, INC., priority 2019, published 2026).

Starred links: 1 amine or outer side, 2 acyl side, 3 side chain; linkers in the order of their positions; H or OH if unused. Positions of bridges follow the written chain, without caps; N, C: chain ends. Non-standard residues stand in square brackets, D forms with d. Residues, ends and D or L forms follow the SMILES beside them. Groups on a side chain read outwards from the residue. *: point of attachment. PEG24 = NCCOCCOCCOCCOCCOCCOCCOCCOCCOCCOCCOCCOCCOCCOCCOCCOCCOCCOCCOCCOCCOCCOCCOCCOCCC(=O)O; X1 = N=C(N)NCCC[C@H](N[*:1])C(=O)C[C@@H](Cc1ccccc1)C(=O)[*:2]; Trp(7-aza) = N[C@@H](Cc1c[nH]c2ncccc12)C(=O)O; γGlu = O=C(O)[C@H](CCC(=O)[*:2])N[*:1]; Palmitoyl = CCCCCCCCCCCCCCCC(=O)*; NMeD = CN[C@@H](CC(=O)O)C(=O)O; Chg = N[C@H](C(=O)O)C1CCCCC1; Tle = CC(C)(C)[C@H](N)C(=O)O

Series [1] has as its system complement component 5 (C5). As to conditions: including p.R885>H/C; cited from earlier work.
Series [2] deals with surface-bound C5b-9 or soluble membrane attack complex (sC5b-9). As to conditions: unlike eculizumab; cited from earlier work.

For `CCCCCCCCCCCCCCCC(=O)N[C@@H](CCC(=O)NCCOCCOCCOCCOCCOCCOCCOCCOCCOCCOCCOCCOCCOCCOCCOCCOCCOCCOCCOCCOCCOCCOCCOCCOCCC(=O)NCCCC[C@H](NC(=O)[C@@H](NC(=O)[C@@H]1CCCN1C(=O)[C@H](Cc1ccc(O)cc1)NC(=O)[C@H](CCC(=O)[O-])NC(=O)[C@H](Cc1c[nH]c2ncccc12)NC(=O)[C@H](Cc1ccc(O)cc1)NC(=O)[C@@H](NC(=O)[C@H](CC(=O)[O-])N(C)C(=O)[C@@H]1CC(=O)NCCCC[C@H](NC(C)=O)C(=O)N[C@@H](C(C)C)C(=O)N[C@@H](CCC(=O)O)C(=O)N[C@@H](CCCNC(=N)N)C(=O)C[C@@H](Cc2ccccc2)C(=O)N1)C(C)(C)C)C1CCCCC1)C(=O)[O-])C(=O)[O-].[Na+].[Na+].[Na+].[Na+]` [zilucoplan] (Ac-KVE[X1]D[NMeD][Tle]Y[Trp(7-aza)]EYP[Chg]K([PEG24-γGlu-Palmitoyl])-OH; lactam 1-5), the “binding and inhibitory activities in the presence of clinically relevant human C5 polymorphisms” value in series [1] is listed as “not affected”. Further, the “binding to surface-bound C5b-9 or sC5b-9” value in series [2] is reported as “does not bind”.
